Source: patent publication US4578489A (priority 1982, dated 1986)
Where two headings read alike, the source gives them in different places.

Key:
Type in all cases: cell-based
Aspergillus niger = experiment: Minimum inhibitory concentration against fungi, agar incorporation test, strain K; settings: malt extract/agar
Protocol: (§1) The invention is carried out using the known agar incorporation test in the following fungi:
(§2) in a malt extract/agar (Merck). Inhibition is effected by adding sufficient of each of the various compounds to give final concentrations in the agar of 2, 5, 10, 50 and 100 mg/liter. The concentrations (mg/liters) required to inhibit the growth of the fungi (starting from traces of fungi added dropwise) are illustrated in Table 3.

Penicillium funiculosum = experiment: Minimum inhibitory concentration against fungi, agar incorporation test, strain M; settings: malt extract/agar
Protocol: as §1
(M) Penicillium funiculosum
as §2

[1] = tested on: Cladosporium cladosporioides; experiment: Minimum inhibitory concentration against fungi, agar incorporation test, strain O; settings: malt extract/agar
Protocol: as §1
(O) Cladosporium cladosporioides
as §2

Endomyces geotrichum = experiment: Minimum inhibitory concentration against fungi, agar incorporation test, strain Q; settings: malt extract/agar
Protocol: as §1, §2

Alternaria alternata = experiment: Minimum inhibitory concentration against fungi, agar incorporation test, strain N; settings: malt extract/agar
Protocol: as §1, §2

[2] = tested on: mixed culture of bacteria; set-up: key: +: growth, no destruction; (+): growth less than that of control (>10 colonies), slight destruction; (-): slight growth (1-10 colonies); -: no growth, destruction
Candida albicans = experiment: Minimum inhibitory concentration against fungi, agar incorporation test, strain P; settings: malt extract/agar
Protocol: as §1, §2

Chlorella vulgaris = experiment: Action against algae: Chlorella vulgaris; set-up: key: --: no growth on the agar, 3 ppm have destroyed the algae in 6 hours; settings: 3 mg/liter; for Growth on the agar (algae-destroying action): 6 hours exposure, 14 days incubation; for Growth in the medium (growth inhibition): 14 days
Protocol: Cultures of Chlorella vulgaris which had been grown for 14 days in algae nutrient media are diluted in the ratio 1/200 in the algae nutrient medium. Each of the compounds listed in Table 1 is then added in such an amount as to give a final concentration of 3 mg/liter. After incubating for 6 hours, 10 μl of each culture are withdrawn and added dropwise to algae/agar in order to determine the destructive action. After the cultures have incubated for 14 days under illumination (14 hours of light and 10 hours of darkness, alternately), the growth in the algae medium (determination of growth inhibition) and on the algae/agar (determination of algae-destroying action) is assessed visually.

Chaetomium globosum = experiment: Minimum inhibitory concentration against fungi, agar incorporation test, strain S; settings: malt extract/agar
Protocol: as §1, §2

Aspergillus phoenicis = experiment: Minimum inhibitory concentration against fungi, agar incorporation test, strain L; settings: malt extract/agar
Protocol: as §1
(L) Aspergillus phoenicis
as §2

Aureobasidium pullulans = experiment: Minimum inhibitory concentration against fungi, agar incorporation test, strain R; settings: malt extract/agar
Protocol: as §1
(R) Aureobasidium pullulans
as §2

Proteus vulgaris = experiment: Minimum inhibitory concentration against bacteria, strain A; settings: 24 hours at 30° C.; tested at 100 and 300 mg/liter
Protocol: (§3) Overnight cultures, grown in Caso peptone bouillon (Merck) of the various strains of bacteria: (A) Proteus vulgaris, (B) Pseudomonas aeruginosa, (C) Enterobacter aerogenes, (D) Serratia marcencens, (E) Alcaligenes denitrificans and (F) Bacillus subtilis are each diluted in a ratio of 1/1000 in saline solution. Sufficient of the suspensions is put into Caso peptone bouillon to dilute the bacteria again in the ratio of 1/1000. Each of the compounds listed in Table 1 is then added in amounts of 100 and 300 mg/liter. After being incubated for 24 hours at 30° C. in a shaking waterbath, the turbidity of the samples is evaluated.

Serratia marcencens = experiment: Minimum inhibitory concentration against bacteria, strain D; settings: 24 hours at 30° C.; tested at 100 and 300 mg/liter
Protocol: as §3

Bacillus subtilis = experiment: Minimum inhibitory concentration against bacteria, strain F; settings: 24 hours at 30° C.; tested at 100 and 300 mg/liter
Protocol: as §3

Pseudomonas aeruginosa = experiment: Minimum inhibitory concentration against bacteria, strain B; settings: 24 hours at 30° C.; tested at 100 and 300 mg/liter
Protocol: as §3

Enterobacter aerogenes = experiment: Minimum inhibitory concentration against bacteria, strain C; settings: 24 hours at 30° C.; tested at 100 and 300 mg/liter
Protocol: as §3

[3] = tested on: Alcaligenes denitrificans; experiment: Minimum inhibitory concentration against bacteria, strain E; settings: 24 hours at 30° C.; tested at 100 and 300 mg/liter
Protocol: as §3

[4] = 5 mg/l, culture diluted 1/1000 in Tyrode
[5] = 5 mg/l, culture diluted 1/10000 in Tyrode
[6] = 10 mg/l, culture diluted 1/1000 in Tyrode
[7] = 10 mg/l, culture diluted 1/10000 in Tyrode
[8] = 30 mg/l, culture diluted 1/1000 in Tyrode
[9] = 30 mg/l, culture diluted 1/10000 in Tyrode
[10] = 60 mg/l, culture diluted 1/1000 in Tyrode
[11] = 60 mg/l, culture diluted 1/10000 in Tyrode
[12] = 100 mg/l, culture diluted 1/1000 in Tyrode
[13] = 100 mg/l, culture diluted 1/10000 in Tyrode

Compound: CCCCCCCCCCCCCCCCCC[N+](C)(C)C.CCC[CH2][Sn-]([Cl])([Cl])([CH2]CCC)[CH2]CCC [Example 18, (CH3)3 NC18 H37 / Tributyldichloro]
- MIC against fungi, strain K (Aspergillus niger): 2 mg/L
- MIC against fungi, strain M (Penicillium funiculosum): 5 mg/L
- MIC against fungi, strain O [1]: 2 mg/L
- MIC against fungi, strain Q (Endomyces geotrichum): 10 mg/L
- MIC against fungi, strain N (Alternaria alternata): 2 mg/L
- Growth (destruction of a mixed culture of bacteria) [2, 4]: +
- Growth (destruction of a mixed culture of bacteria) [2, 5]: (+) (growth less than that of control (>10 colonies), slight destruction)
- Growth (destruction of a mixed culture of bacteria) [2, 6]: +
- Growth (destruction of a mixed culture of bacteria) [2, 7]: (-) (slight growth (1-10 colonies))
- Growth (destruction of a mixed culture of bacteria) [2, 8]: (+) (growth less than that of control (>10 colonies), slight destruction)
- Growth (destruction of a mixed culture of bacteria) [2, 9]: -
- Growth (destruction of a mixed culture of bacteria) [2, 10]: (+) (growth less than that of control (>10 colonies), slight destruction)
- Growth (destruction of a mixed culture of bacteria) [2, 11]: -
- Growth (destruction of a mixed culture of bacteria) [2, 12]: (-) (slight growth (1-10 colonies))
- Growth (destruction of a mixed culture of bacteria) [2, 13]: -
- MIC against fungi, strain P (Candida albicans): 5 mg/L
- Growth on the agar (algae-destroying action) (Chlorella vulgaris): --
- Growth in the medium (growth inhibition) (Chlorella vulgaris): --
- MIC against fungi, strain S (Chaetomium globosum): 2 mg/L
- MIC against fungi, strain L (Aspergillus phoenicis): 2 mg/L
- MIC against fungi, strain R (Aureobasidium pullulans): 2 mg/L

Compound: CCCCCCCCCCCC[N+](C)(C)O.CCC[CH2][Sn-]([Cl])([Cl])([CH2]CCC)[CH2]CCC [Example 14, (CH3)2 N(OH)C12 H25 / Tributyldichloro]
- MIC against fungi, strain K (Aspergillus niger): 2 mg/L
- MIC against fungi, strain M (Penicillium funiculosum): 5 mg/L
- MIC against bacteria, strain A (Proteus vulgaris): 100 mg/L
- MIC against bacteria, strain D (Serratia marcencens): 300 mg/L
- MIC against fungi, strain O [1]: 2 mg/L
- MIC against fungi, strain Q (Endomyces geotrichum): 10 mg/L
- MIC against fungi, strain N (Alternaria alternata): 2 mg/L
- MIC against bacteria, strain F (Bacillus subtilis): 100 mg/L
- MIC against fungi, strain P (Candida albicans): 5 mg/L
- MIC against bacteria, strain B (Pseudomonas aeruginosa): 100 mg/L
- Growth on the agar (algae-destroying action) (Chlorella vulgaris): --
- Growth in the medium (growth inhibition) (Chlorella vulgaris): --
- MIC against fungi, strain S (Chaetomium globosum): 2 mg/L
- MIC against fungi, strain L (Aspergillus phoenicis): 2 mg/L
- MIC against bacteria, strain C (Enterobacter aerogenes): > 300 mg/L
- MIC against bacteria, strain E [3]: 300 mg/L
- MIC against fungi, strain R (Aureobasidium pullulans): 2 mg/L

Compound: CCCCCCCCCCCCC(=O)NCCC[N+](C)(C)CC(N)=O.CCC[CH2][Sn-]([Cl])([Cl])([CH2]CCC)[CH2]CCC [Example 30, (C12 H25 CO)NH(CH2) 3 N(CH3)2 (CH2 CONH2) / Tributyldichloro]
- MIC against fungi, strain K (Aspergillus niger): ≤ 5 mg/L
- MIC against fungi, strain M (Penicillium funiculosum): 10 mg/L
- MIC against bacteria, strain A (Proteus vulgaris): 100 mg/L
- MIC against bacteria, strain D (Serratia marcencens): 100 mg/L
- MIC against fungi, strain O [1]: ≤ 5 mg/L
- MIC against fungi, strain Q (Endomyces geotrichum): 10 mg/L
- MIC against fungi, strain N (Alternaria alternata): ≤ 5 mg/L
- MIC against bacteria, strain F (Bacillus subtilis): 100 mg/L
- MIC against fungi, strain P (Candida albicans): ≤ 5 mg/L
- MIC against bacteria, strain B (Pseudomonas aeruginosa): 100 mg/L
- Growth on the agar (algae-destroying action) (Chlorella vulgaris): --
- Growth in the medium (growth inhibition) (Chlorella vulgaris): --
- MIC against fungi, strain S (Chaetomium globosum): ≤ 5 mg/L
- MIC against fungi, strain L (Aspergillus phoenicis): ≤ 5 mg/L
- MIC against bacteria, strain C (Enterobacter aerogenes): 100 mg/L
- MIC against bacteria, strain E [3]: 100 mg/L
- MIC against fungi, strain R (Aureobasidium pullulans): ≤ 5 mg/L

Compound: C14 H29 (CH3)2NCH2CHOHCH2 OH / Tributyldichloro [Example 21]
- MIC against fungi, strain K (Aspergillus niger): ≤ 5 mg/L
- MIC against fungi, strain M (Penicillium funiculosum): ≤ 5 mg/L
- MIC against bacteria, strain A (Proteus vulgaris): 100 mg/L
- MIC against bacteria, strain D (Serratia marcencens): 100 mg/L
- MIC against fungi, strain O [1]: ≤ 5 mg/L
- MIC against fungi, strain Q (Endomyces geotrichum): ≤ 5 mg/L
- MIC against fungi, strain N (Alternaria alternata): ≤ 5 mg/L
- MIC against bacteria, strain F (Bacillus subtilis): 100 mg/L
- MIC against fungi, strain P (Candida albicans): ≤ 5 mg/L
- MIC against bacteria, strain B (Pseudomonas aeruginosa): 100 mg/L
- Growth on the agar (algae-destroying action) (Chlorella vulgaris): --
- Growth in the medium (growth inhibition) (Chlorella vulgaris): --
- MIC against fungi, strain S (Chaetomium globosum): ≤ 5 mg/L
- MIC against fungi, strain L (Aspergillus phoenicis): ≤ 5 mg/L
- MIC against bacteria, strain C (Enterobacter aerogenes): 100 mg/L
- MIC against bacteria, strain E [3]: 100 mg/L
- MIC against fungi, strain R (Aureobasidium pullulans): ≤ 5 mg/L

Compound: CCCCCCCCCCCCCCCC[N+](C)(C)C.CCC[CH2][Sn-]([Cl])([Cl])([CH2]CCC)[CH2]CCC [Example 17, (CH3)3 NC16 H33 / Tributyldichloro]
- MIC against fungi, strain K (Aspergillus niger): 2 mg/L
- MIC against fungi, strain M (Penicillium funiculosum): 5 mg/L
- MIC against fungi, strain O [1]: 2 mg/L
- MIC against fungi, strain Q (Endomyces geotrichum): 10 mg/L
- MIC against fungi, strain N (Alternaria alternata): 2 mg/L
- Growth (destruction of a mixed culture of bacteria) [2, 4]: +
- Growth (destruction of a mixed culture of bacteria) [2, 5]: (+) (growth less than that of control (>10 colonies), slight destruction)
- Growth (destruction of a mixed culture of bacteria) [2, 6]: +
- Growth (destruction of a mixed culture of bacteria) [2, 7]: (+) (growth less than that of control (>10 colonies), slight destruction)
- Growth (destruction of a mixed culture of bacteria) [2, 8]: (+) (growth less than that of control (>10 colonies), slight destruction)
- Growth (destruction of a mixed culture of bacteria) [2, 9]: -
- Growth (destruction of a mixed culture of bacteria) [2, 10]: -
- Growth (destruction of a mixed culture of bacteria) [2, 11]: -
- Growth (destruction of a mixed culture of bacteria) [2, 12]: -
- Growth (destruction of a mixed culture of bacteria) [2, 13]: -
- MIC against fungi, strain P (Candida albicans): 5 mg/L
- Growth on the agar (algae-destroying action) (Chlorella vulgaris): --
- Growth in the medium (growth inhibition) (Chlorella vulgaris): --
- MIC against fungi, strain S (Chaetomium globosum): 2 mg/L
- MIC against fungi, strain L (Aspergillus phoenicis): 2 mg/L
- MIC against fungi, strain R (Aureobasidium pullulans): 2 mg/L
